# Patent publication US20250163057A1, “DCN-1 MODULATING COMPOUNDS AND METHODS OF USE THEREOF” (Cellarity, Inc., priority 2023, published 2025)
# Target: DCN1 protein (Homo sapiens (Human), UniProt Q96GG9)
# Test: Intact Protein MS Analysis with the RapidFire-TOF System (covalent adduct formation)
# Assay type: binding
# Conditions: MS Emax; 400 nM DCN1, 3 hours at room temperature
# Protocol: An MS assay was performed to evaluate the ability of the compounds to covalently modify DCN-1.
# DCN1 protein, His-TEV-DCN1, were expressed in E. Coli. The His-tagged protein was first purified with an Ni-NTA column. The His-tag was cleaved using His-tag TEV protease and the His-tags were removed using a second Ni-NTA column. Protein purity was verified with SDS-PAGE and intact MS. DCN1 was dissolved in a buffer containing 25 mM Tris-HCl, 200 mM NaCl, and 1 mM DTT at 400 nM. 11 concentrations of compounds were added to the DCN1 solution and incubated at room temperature for 3 hours, unless otherwise specified. The reaction plates were quenched by adding 0.2% formic acid. […] The cartridge was re-equilibrated with loading buffer for 1 second before collection of the next sample. The Q-TOF was operated in TOF-only positive ionization mode set to the following parameters: Gas Temp=350 C, Drying Gas=7 l/min, Nebulizer=50 psi, Sheath Gas Temp=400 C, Sheath Gas Flow=12 l/min, Vcap=4000 V, Nozzle Voltage=1000 V, Fragmentor=125 V, Skimmer=65 V and Oct 1 RF Vpp=750V. Raw MS data files were deconvoluted and analyzed using the Agilent MassHunter Bioconfirm software package to identify both parent protein and expected compound adduct mass signatures.
# Chain of DCN1 protein (Q96GG9 whole entry): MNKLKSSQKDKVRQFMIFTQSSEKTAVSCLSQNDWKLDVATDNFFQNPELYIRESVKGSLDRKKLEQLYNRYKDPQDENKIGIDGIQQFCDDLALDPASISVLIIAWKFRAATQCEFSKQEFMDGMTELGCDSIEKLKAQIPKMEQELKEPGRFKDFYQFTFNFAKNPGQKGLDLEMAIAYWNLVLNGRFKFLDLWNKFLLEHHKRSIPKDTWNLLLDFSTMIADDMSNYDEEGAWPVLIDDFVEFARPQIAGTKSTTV
row,Compound,% Adduct Formation
1,CCN1C(=O)[C@@H](NC(=O)c2cccc(C(F)(F)F)c2)[C@@H](c2ccc(F)cc2)c2c([C@@H](C)NC(=O)C(C)Cl)nn(-c3ccccc3)c21 (stereo in doubt) [Compound I-212],+ (MS Emax % adduct formation greater than or equal to 0.0 and less than or equal to 30.0)
2,"CCN1C(=O)[C@@H](NC(=O)c2cccc(C(F)(F)F)c2)[C@@H](c2ccc(F)cc2)c2c(C=O)nn(-c3ccccc3)c21 (racemic) [Compound I-189, rac-N-((4R,5R)-7-ethyl-4-(4-fluorophenyl)-3-formyl-6-oxo-1-phenyl-4,5,6,7-tetrahydro-1H-pyrazolo[3,4-b]pyridine-5-yl)-3-(trifluoromethyl)benzamide]",+ (MS Emax % adduct formation greater than or equal to 0.0 and less than or equal to 30.0)
3,"CCN1C(=O)[C@H](NC(=O)c2cccc(C(F)(F)F)c2)[C@@H](c2ccc(F)cc2)c2c(C3CO3)nn(-c3ccccc3)c21 (relative stereo) [Compound I-207, N-((4RS,5SR)-7-ethyl-4-(4-fluorophenyl)-3-((S*)-oxiran-2-yl)-6-oxo-1-phenyl-4,5,6,7-tetrahydro-1H-pyrazolo[3,4-b]pyridine-5-yl)-3-(trifluoromethyl)benzamide]",+ (MS Emax % adduct formation greater than or equal to 0.0 and less than or equal to 30.0)
4,"C=C(C(=O)N(C)C)c1nn(-c2ccccc2)c2c1[C@H](c1ccc(F)cc1)[C@H](NC(=O)c1cccc(C(F)(F)F)c1)C(=O)N2CC (racemic) [Compound I-188, rac-N-((4R,5R)-3-(3-(dimethylamino)-3-oxoprop-1-en-2-yl)-7-ethyl-4-(4-fluorophenyl)-6-oxo-1-phenyl-4,5,6,7-tetrahydro-1H-pyrazolo[3,4-b]pyridine-5-yl)-3-(trifluoromethyl)benzamide]",+ (MS Emax % adduct formation greater than or equal to 0.0 and less than or equal to 30.0)
5,"CCN1C(=O)[C@@H](NC(=O)c2cccc(C(F)(F)F)c2)[C@@H](c2ccc(F)cc2)c2c(C3CO3)nn(-c3ccccc3)c21 (relative stereo) [Compound I-196, N-((4RS,5RS)-7-ethyl-4-(4-fluorophenyl)-3-((S*)-oxiran-2-yl)-6-oxo-1-phenyl-4,5,6,7-tetrahydro-1H-pyrazolo[3,4-b]pyridine-5-yl)-3-(trifluoromethyl)benzamide]",+ (MS Emax % adduct formation greater than or equal to 0.0 and less than or equal to 30.0)
6,CCN1C(=O)[C@@H](NC(=O)c2cccc(C(F)(F)F)c2)[C@@H](c2ccc(F)cc2)c2c(CN(C)C(=O)C3=CCC3)nn(-c3ccccc3)c21 (racemic) [Compound I-200],+ (MS Emax % adduct formation greater than or equal to 0.0 and less than or equal to 30.0)
7,C=C(F)C(=O)NCc1nn(-c2ccccc2)c2c1[C@H](c1ccc(F)cc1)[C@H](NC(=O)c1cccc(C(F)(F)F)c1)C(=O)N2CC [Compound I-240],+ (MS Emax % adduct formation greater than or equal to 0.0 and less than or equal to 30.0)
8,CCN1C(=O)[C@@H](NC(=O)c2cccc(C(F)(F)F)c2)[C@@H](c2ccc(F)cc2)c2c([C@@H](C)NC(=O)C3=CCCC3)nn(-c3ccccc3)c21 (mixture of isomers) [Compound I-166],+ (MS Emax % adduct formation greater than or equal to 0.0 and less than or equal to 30.0)
9,CCN1C(=O)[C@@H](NC(=O)c2cccc(C(F)(F)F)c2)[C@@H](c2ccc(F)cc2)c2c(CNC(=O)/C=C/C(F)(F)F)nn(-c3ccccc3)c21 (racemic) [Compound I-221],+ (MS Emax % adduct formation greater than or equal to 0.0 and less than or equal to 30.0)
10,CCN1C(=O)[C@@H](NC(=O)c2cccc(C(F)(F)F)c2)[C@@H](c2ccc(F)cc2)c2c(CNC(=O)COc3c(F)c(F)cc(F)c3F)nn(-c3ccccc3)c21 (racemic) [Compound I-182],+ (MS Emax % adduct formation greater than or equal to 0.0 and less than or equal to 30.0)
11,C/C=C/C(=O)N(C)Cc1nn(-c2ccccc2)c2c1[C@H](c1ccc(F)cc1)[C@H](NC(=O)c1cccc(C(F)(F)F)c1)C(=O)N2CC (racemic) [Compound I-234],+ (MS Emax % adduct formation greater than or equal to 0.0 and less than or equal to 30.0)
12,C=CS(=O)(=O)Nc1nn(-c2ccccc2)c2c1[C@H](c1ccc(F)cc1)[C@H](NC(=O)c1cccc(C(F)(F)F)c1)C(=O)N2CC (racemic) [Compound I-187],+++ (MS Emax % adduct formation greater than 80.0 and less than or equal to 100.0)
13,CCN1C(=O)[C@@H](NC(=O)c2cccc(C(F)(F)F)c2)[C@@H](c2ccc(F)cc2)c2c([C@@H](C)NC(=O)/C=C/CN(C)C)nn(-c3ccccc3)c21 (mixture of isomers) [Compound I-210],+ (MS Emax % adduct formation greater than or equal to 0.0 and less than or equal to 30.0)
14,CCN1C(=O)[C@@H](NC(=O)c2cccc(C(F)(F)F)c2)[C@@H](c2ccc(F)cc2)c2c([C@@H](C)NC(=O)/C=C/CN3CCOCC3)nn(-c3ccccc3)c21 (mixture of isomers) [Compound I-165],+ (MS Emax % adduct formation greater than or equal to 0.0 and less than or equal to 30.0)
15,CCN1C(=O)[C@@H](NC(=O)c2cccc(C(F)(F)F)c2)[C@@H](c2ccc(F)cc2)c2c(CNC(=O)C3=CCCC3)nn(-c3ccccc3)c21 (racemic) [Compound I-232],+ (MS Emax % adduct formation greater than or equal to 0.0 and less than or equal to 30.0)
16,CCN1C(=O)[C@@H](NC(=O)c2cccc(C(F)(F)F)c2)[C@@H](c2ccc(F)cc2)c2c(CNC(=O)C(F)Cl)nn(-c3ccccc3)c21 (stereo in doubt) [Compound I-205],+ (MS Emax % adduct formation greater than or equal to 0.0 and less than or equal to 30.0)
17,CCN1C(=O)[C@@H](NC(=O)c2cccc(C(F)(F)F)c2)[C@@H](c2ccc(F)cc2)c2c([C@H](C)NS(=O)(=O)CCl)nn(-c3ccccc3)c21 (racemic) [Compound I-214],+ (MS Emax % adduct formation greater than or equal to 0.0 and less than or equal to 30.0)
18,CCN1C(=O)[C@@H](NC(=O)c2cccc(C(F)(F)F)c2)[C@@H](c2ccc(F)cc2)c2c([C@@H](C)NC(=O)COc3c(F)c(F)cc(F)c3F)nn(-c3ccccc3)c21 (mixture of isomers) [Compound I-168],+ (MS Emax % adduct formation greater than or equal to 0.0 and less than or equal to 30.0)
19,CCN1C(=O)[C@@H](NC(=O)c2cccc(C(F)(F)F)c2)[C@@H](c2ccc(F)cc2)c2c([C@@H](C)NS(=O)(=O)CCl)nn(-c3ccccc3)c21 (mixture of isomers) [Compound I-215],+ (MS Emax % adduct formation greater than or equal to 0.0 and less than or equal to 30.0)
20,C=C(CN(C)C)C(=O)N[C@H](C)c1nn(-c2ccccc2)c2c1[C@H](c1ccc(F)cc1)[C@H](NC(=O)c1cccc(C(F)(F)F)c1)C(=O)N2CC (mixture of isomers) [Compound I-213],+++ (MS Emax % adduct formation greater than 80.0 and less than or equal to 100.0)
21,CCN1C(=O)[C@@H](NC(=O)c2cccc(C(F)(F)F)c2)[C@@H](c2ccc(F)cc2)c2c(CN(C)C(=O)COc3c(F)c(F)cc(F)c3F)nn(-c3ccccc3)c21 (racemic) [Compound I-228],+ (MS Emax % adduct formation greater than or equal to 0.0 and less than or equal to 30.0)
